Experimental data published in ChEMBL document CHEMBL1141566, “Synthesis and antitumor evaluation of bis aza-anthracene-9,10-diones and bis aza-anthrapyrazole-6-ones” (2008).

Legend:
HT-29 [1] = test: Cytotoxicity against human HT29 cells after 72 hrs; format: functional; conditions: HT-29, 72 h
HT-29 [2] = test: Effect on apoptosis in human HT29 PI-/AnnV- cells after 6 hrs by biparametric flow cytometric analysis; format: functional; conditions: HT-29, 6 h, read-out: LC50 (the source's name)
HT-29 [3] = test: Effect on apoptosis in human HT29 PI+/AnnV- cells after 6 hrs by biparametric flow cytometric analysis; format: functional; conditions: HT-29, 6 h, read-out: LC50 (the source's name)
HT-29 [4] = test: Effect on apoptosis in human HT29 PI-/AnnV+ cells after 6 hrs by biparametric flow cytometric analysis; format: functional; conditions: HT-29, 6 h, read-out: LC50 (the source's name)
HT-29 [5] = test: Effect on apoptosis in human HT29 PI+/AnnV+ cells after 6 hrs by biparametric flow cytometric analysis; format: functional; conditions: HT-29, 6 h, read-out: LC50 (the source's name)
HT-29 [6] = test: Effect on apoptosis in human HT29 PI-/AnnV- cells after 12 hrs by biparametric flow cytometric analysis; format: functional; conditions: HT-29, 12 h, read-out: LC50 (the source's name)
HT-29 [7] = test: Effect on apoptosis in human HT29 PI+/AnnV- cells after 12 hrs by biparametric flow cytometric analysis; format: functional; conditions: HT-29, 12 h, read-out: LC50 (the source's name)
HT-29 [8] = test: Effect on apoptosis in human HT29 PI-/AnnV+ cells after 12 hrs by biparametric flow cytometric analysis; format: functional; conditions: HT-29, 12 h, read-out: LC50 (the source's name)
HT-29 [9] = test: Effect on apoptosis in human HT29 PI+/AnnV+ cells after 12 hrs by biparametric flow cytometric analysis; format: functional; conditions: HT-29, 12 h, read-out: LC50 (the source's name)
HT-29 [10] = test: Effect on apoptosis in human HT29 PI-/AnnV- cells after 24 hrs by biparametric flow cytometric analysis; format: functional; conditions: HT-29, 24 h, read-out: LC50 (the source's name)
HT-29 [11] = test: Effect on apoptosis in human HT29 PI+/AnnV- cells after 24 hrs by biparametric flow cytometric analysis; format: functional; conditions: HT-29, 24 h, read-out: LC50 (the source's name)
HT-29 [12] = test: Effect on apoptosis in human HT29 PI-/AnnV+ cells after 24 hrs by biparametric flow cytometric analysis; format: functional; conditions: HT-29, 24 h, read-out: LC50 (the source's name)
HT-29 [13] = test: Effect on apoptosis in human HT29 PI+/AnnV+ cells after 24 hrs by biparametric flow cytometric analysis; format: functional; conditions: HT-29, 24 h, read-out: LC50 (the source's name)
[14] = Ratio of Kapp for synthetic poly(dA-dT)]2 oligonucleotide to Kapp for synthetic poly(dG-dC)]2 oligonucleotide

Row | SMILES | GI50 (HT-29 [1]) [µM] | LC50 (concentration killing 50% of cells) (HT-29 [1]) [µM] | TGI (HT-29 [1]) [µM] | also measured
1 | CN(C)CCn1nc2c3c(c(NCCCN(C)CCCNc4ccc5c6c(nn5CCN(C)C)-c5ccncc5C(=O)c46)ccc31)C(=O)c1cnccc1-2 | 0.7 | > 100 | > 100 | 
2 | CCN(CC)CCn1nc2c3c(c(NCCCN(C)CCCNc4ccc5c6c(nn5CCN(CC)CC)-c5cnccc5C(=O)c46)ccc31)C(=O)c1ccncc1-2 | 0.001 | 97 | 4.5 | 
3 | NCCNc1ccc(NCCN)c2c1C(=O)c1ccncc1C2=O [PIXANTRONE] | 0.0012 |  | 3.2 | CC50 (HT-29 [2]): 60.4 µM; CC50 (HT-29 [3]): 4.8 µM; CC50 (HT-29 [4]): 32.5 µM; CC50 (HT-29 [5]): 2.3 µM; CC50 (HT-29 [6]): 50.4 µM; CC50 (HT-29 [7]): 5.1 µM; CC50 (HT-29 [8]): 38.4 µM; CC50 (HT-29 [9]): 6.1 µM; CC50 (HT-29 [10]): 41.6 µM; CC50 (HT-29 [11]): 11.2 µM; CC50 (HT-29 [12]): 41 µM; CC50 (HT-29 [13]): 6.2 µM
4 | CN(C)CCCNc1ccc(NCCCN(C)CCCNc2ccc(NCCCN(C)C)c3c2C(=O)c2ccncc2C3=O)c2c1C(=O)c1cnccc1C2=O | > 100 |  |  | Ratio [14]: 1.9
5 | CN(C)CCCn1nc2c3c(c(NCCCN(C)CCCNc4ccc5c6c(nn5CCCN(C)C)-c5cnccc5C(=O)c46)ccc31)C(=O)c1ccncc1-2 | 1.6 | > 100 | > 100 | 
6 | CN(CCCNc1ccc(NCCN2CCCC2)c2c1C(=O)c1cnccc1C2=O)CCCNc1ccc(NCCN2CCCC2)c2c1C(=O)c1cnccc1C2=O | 0.5 | > 100 | 7.9 | Ratio [14]: 2.4
7 | CCN(CC)CCn1nc2c3c(c(NCCCN(C)CCCNc4ccc5c6c(nn5CCN(CC)CC)-c5ccncc5C(=O)c46)ccc31)C(=O)c1cnccc1-2 | 0.4 | > 100 | > 100 | 
